Literature values, collected in patent publication US20090286795A1, “USE OF VASCULAR ENDOTHELIAL GROWTH FACTOR RECEPTOR INHIBITORS FOR THE TREATMENT OF CANCER” (priority 2006, published 2009).

Conditions: studies in humans

For `Clc1ccc(Nc2nnc(Cc3ccncc3)c3ccccc23)cc1` [PTK787, 1-(4-chloroanilino)-4-(4-pyridylmethyl)phthalazine], the tolerability in humans is listed as “well tolerated” and the tumor vascular permeability is listed as “reduce tumor vascular permeability”.
